Data from patent publication US12662676B2, “Aptamer nucleic acid molecule, and complex and application thereof” (EAST CHINA UNIVERSITY OF SCIENCE AND TECHNOLOGY, priority 2019, dated 2026).

Experiment: Fluorescence activation of III-3 fluorophore by Pepper aptamers and mutants
Type: biochemical
Conditions: for Activation folds: 1 μM III-3 with 5 μM RNA
Procedure: Preparation of Pepper or Pepper mutant aptamer according to the commonly used experimental method (1). 5 μM aptamer and 1 μM fluorophore were incubated in the detection buffer (40 mM HEPES, pH 7.4, 125 mM KCl, 5 mM MgCl2, 5% DMSO). The maximal excitation and emission peaks of the aptamer-fluorophore complexes were determined using a Synergy Neo2 multifunctional microplate reader. The fluorescence intensities of the aptamer-fluorophore complexes at the maximal excitation and emission peaks were determined using a Synergy Neo2 multifunctional microplate reader. The control sample (1 μM fluorophore without aptamer) was also measured under the same conditions. Then the ratios of fluorescence intensity were calculated. For example, the fluorescence maximal excitation and emission peaks of the complex of 5 μM F30-Pepper-2 and 1 μM III-3 fluorophore are 485 nm and 530 nm, respectively. The fluorescence intensity of the complex at 485±10 nm excitation and 530 nm±10 nm emission was 36,000, the fluorescence intensity of the control sample (1 μM III-3 fluorophore only) under the same detection conditions was 10. Thus, the activation ratio of F30-Pepper-2 aptamer on III-3 fluorophore was 3,600-fold.
In order to detect the fluorescence activation of III-3 fluorophore by different Pepper mutant, the Pepper-1 sequence in F30-Pepper-1 was mutated according to Table 1. […] 1 μM III-3 was incubated with […] RNA and their fluorescence activation folds were determined according to the commonly used experimental method (5). […] In summary, many Pepper mutants containing single and multiple mutants still retain the ability to activate the fluorescence of III-3 fluorophore.
In order to detect the activation of III-3 by modified Pepper, base-modified Pepper-3 was synthesized (SEQ ID NO: 6, the underlined nucleotides in […] GGCC contain deoxyribonucleotide bases) and Pepper-4 (SEQ ID NO: 7, the underlined nucleotides in […] GGGCC contain 2′-F modification) (synthesized by Shanghai GenePharma Co., Ltd), which contain deoxyribonucleotides replacement (shaded bases in FIG. 5A) or 2′-F modification (shaded bases in FIG. 5B) in the stem-loop region of Pepper. Detection of the fluorescence activation of III-3 fluorophore by these modified Peppers was carried out according to the commonly used experimental method (5).

[1] = Activation of III-3 by Pepper mutants with single mutation
[2] = Activation of III-3 by Pepper mutants with multiple mutations

In the case of “C30U: F30-Pepper-1 mutant aptamer (NCCAAUCGUGGCGUGUCGNNNACUGGCGCUGN; RNA, backbone, methylation of C and the base at N not given here; Pepper aptamer mutant embedded in F30 scaffold) [Compound C30U]”, the Activation folds [1] is reported as 2587 folds.

For “U14A: F30-Pepper-1 mutant aptamer (NCCAAUCGUGGCGAGUCGNNNACUGGCGCCGN; RNA, backbone and the base at N not given here; Pepper variant inserted in F30 scaffold RNA) [Compound U14A]”, the Activation folds [1] was 1524 folds.

“C7U: F30-Pepper-1 mutant aptamer (NCCAAUUGUGGCGUGUCGNNNACUGGCGCCGN; RNA, backbone, methylation of C and the base at N not given here; Pepper aptamer mutant embedded in F30 scaffold) [Compound C7U]” showed an Activation folds [1] of 2268 folds.

With “C2U/G31A: F30-Pepper-1 mutant aptamer (NUCAAUCGUGGCGUGUCGNNNACUGGCGCCAN; Pepper mutant embedded in F30 scaffold, chemistry not given here, further chemistry not given here)” the Activation folds [2] was 3256 folds.

Work on “C2G/G31C/G10C/C30G/U6G/C27U: F30-Pepper-1 mutant aptamer (NGCAAGCGUCGCGUGUCGNNNACUGGUGCGCN; RNA, backbone, methylation of C and the base at N not given here; Pepper aptamer mutant embedded in F30 scaffold)” yielded an Activation folds [2] of 736 folds.

“C3U: F30-Pepper-1 mutant aptamer (NCUAAUCGUGGCGUGUCGNNNACUGGCGCCGN; RNA, backbone, methylation of C and the base at N not given here; Pepper aptamer mutant embedded in F30 scaffold) [Compound C3U]” showed an Activation folds [1] of 2016 folds.

For “C12U: F30-Pepper-1 mutant aptamer (NCCAAUCGUGGUGUGUCGNNNACUGGCGCCGN; Pepper mutant embedded in F30 scaffold, chemistry not given here, further chemistry not given here) [Compound C12U]”, the Activation folds [1] was 2268 folds.

“G18U: F30-Pepper-1 mutant aptamer (NCCAAUCGUGGCGUGUCUNNNACUGGCGCCGN; RNA, backbone, methylation of C and the base at N not given here; Pepper aptamer mutant embedded in F30 scaffold) [Compound G18U]” gave an Activation folds [1] of 1024 folds.

“G13C: F30-Pepper-1 mutant aptamer (NCCAAUCGUGGCCUGUCGNNNACUGGCGCCGN; RNA, backbone, methylation of C and the base at N not given here; Pepper aptamer mutant embedded in F30 scaffold) [Compound G13C]” showed an Activation folds [1] of 1758 folds.

“C2G/G31C/G10A/C30U: F30-Pepper-1 mutant aptamer (NGCAAUCGUAGCGUGUCGNNNACUGGCGCUCN; Pepper mutant embedded in F30 scaffold, chemistry not given here, further chemistry not given here)” gave an Activation folds [2] of 2365 folds.

Work on “A5C: F30-Pepper-1 mutant aptamer (NCCACUCGUGGCGUGUCGNNNACUGGCGCCGN; Pepper mutant embedded in F30 scaffold, chemistry not given here, further chemistry not given here) [Compound A5C]” yielded an Activation folds [1] of 2628 folds.

In the case of “Pepper-3: base-modified Pepper, SEQ ID NO: 6, deoxyribonucleotides replacement in the stem-loop region (GGCCCCCAAUCGUGGCGUGUCGGCCUGCUUCGGCAGGCACUGGCGCCGGGGCC; deoxyribonucleotides at some stem-loop positions, underlined positions not recoverable, further chemistry not given here)”, the “fluorescence activation of III-3 by base-modified Pepper” value (deoxyribonucleotide or 2′-F modification in stem-loop region) is reported as “significantly activate the fluorescence of III-3 fluorophore”.
